The target of assay [1] is T1, H278N mutant mouse delta opioid receptor (Mus musculus, UniProt P32300, H278N).
T1 construct: expressed in transfected cells; host or cells: COS-7 (transient, pCMV6c)
Briefly: Forskolin-stimulated cAMP accumulation, COS-7 cells, H278N mutant. In kind it is cell-based.
Experimental: (§1) Briefly, COS-7 cells were subcultured in 12-well culture plates. The cells were transfected 48 hrs. prior to the cAMP experiments. Culture medium was removed from the wells and replaced with 500 μl of fresh medium containing 0.5 mM isobutylmethylxanthine (IBMX). Cells were incubated for 20 min at 37° C. Medium was removed and replaced with fresh medium containing 0.5 mM IBMX, with or without 10 μM forskolin and various opioid agonists. The cells were incubated for 30 min at 37° C. Medium was removed and cells sonicated in the wells in 500 μl of 1NCl. The HCl was evaporated off in a Speed-Vac and the cAMP analyzed using a radioimmunoassay kit from NEN/Dupont (Wilmington, Del.).

The target in assay [2] is T2, wild-type mouse delta opioid receptor (Mus musculus, UniProt P32300).
T2 construct: expressed in transfected cells; host or cells: COS-7 (transient, pCMV6c)
Briefly: Forskolin-stimulated cAMP accumulation, COS-7 cells, wild-type delta receptor. It counts as cell-based.
Experimental: as §1

Assay [3] has as its target T3, MOP2 (Mus musculus, UniProt P35377).
T3 construct: expressed in transfected cells; host or cells: COS-7 (transient)
In kind it is cell-based.

Assay [4] concerns the target T4, D128N mutant mouse delta opioid receptor (Mus musculus, UniProt P32300, D128N).
T4 construct: expressed in transfected cells; host or cells: COS-7 (transient, pCMV6c)
Briefly: biochemical. It counts as binding.

Assay [5] deals with T1, H278N mutant mouse delta opioid receptor. The assay can be described thus: biochemical. In kind it is binding.
Assay [6] addresses T5, mouse delta opioid receptor aspartate 95 to asparagine mutant (Mus musculus, UniProt P32300, D95N).
T5 construct: expressed in transfected cells; host or cells: COS-7
Briefly: Binding to delta receptor mutant with aspartate 95 converted to asparagine, COS-7 cells.

The target of assay [7] is T4, D128N mutant mouse delta opioid receptor. Briefly: Forskolin-stimulated cAMP accumulation, COS-7 cells, D128N mutant. It counts as cell-based.
Experimental: as §1
In assay [8] the target is T6, cloned mouse κ receptor (Mus musculus, UniProt P33534).
T6 construct: expressed in transfected cells
The assay can be described thus: biochemical. It counts as binding.

Assay [9] concerns the target T7, cloned rat μ receptor (Rattus norvegicus, UniProt P33535).
T7 construct: expressed in transfected cells; host or cells: COS-7 (transient)
The assay can be described thus: biochemical. In kind it is binding.

Assay [10] has as its target T8, cloned mouse δ receptor (Mus musculus, UniProt P32300).
T8 construct: expressed in transfected cells
The assay can be described thus: biochemical. In kind it is binding.

Assay [11] concerns the target T2, wild-type mouse delta opioid receptor. Briefly: biochemical. It counts as binding.
Assay [12] has as its target kappa 1-74/delta65-372 chimera (Mus musculus, UniProt P32300+P33534, A193I/A281G/D128E/D204G/D206V/DEL208-209/DEL216-217/DEL300-312/E203D/E218S/E297A/F225V/F314L/G197A/G198V/I133A/I135L/I177L/I191V/I194M/I237V/I243T/I250L/I284V/I285V/I294L/I85V/INS221Y/INS293[…]/K200Q/K254R/K274R/L173A/L184V/L196M/L224T/L275M/L295V/M112L/M226T/M90L/N122E/N268S/R263K/S123T/S188G/S192P/S211M/T110S/T247G/T288A/T321A/V108A/V118K/V129L/V201P/V205A/V232L/V239I/V282A/V83G/Y219P/Y313H).

Assay [13] has as its target T3, MOP2. In kind it is binding.
For assay [14], the target named is κ1-78/δ70-372 chimeric receptor (Mus musculus, UniProt P32300+P33534, A193I/A281G/D128E/D204G/D206V/DEL208-209/DEL216-217/DEL300-312/E203D/E218S/E297A/F225V/F314L/G197A/G198V/I133A/I135L/I177L/I191V/I194M/I237V/I243T/I250L/I284V/I285V/I294L/I85V/INS221Y/INS293VIVWTLVDINRRDP/K200Q/K254R/K274R/L173A/L184V/L196M/L224T/L275M/L295V/M112L/M226T/M90L/N122E/N268S/R263K/S123T/S188G/S192P/S211M/T110S/T247G/T288A/T321A/V108A/V118K/V129L/V201P/V205A/V232L/V239I/V282A/V83G/Y219P/Y313H). Briefly: biochemical.

For assay [15], the target named is T9, cloned rat μ opioid receptor (Rattus norvegicus, UniProt P33535).
T9 construct: expressed in transfected cells; host or cells: COS-7 (transient)
It counts as binding.

T1 sequence (P32300 whole entry H278N): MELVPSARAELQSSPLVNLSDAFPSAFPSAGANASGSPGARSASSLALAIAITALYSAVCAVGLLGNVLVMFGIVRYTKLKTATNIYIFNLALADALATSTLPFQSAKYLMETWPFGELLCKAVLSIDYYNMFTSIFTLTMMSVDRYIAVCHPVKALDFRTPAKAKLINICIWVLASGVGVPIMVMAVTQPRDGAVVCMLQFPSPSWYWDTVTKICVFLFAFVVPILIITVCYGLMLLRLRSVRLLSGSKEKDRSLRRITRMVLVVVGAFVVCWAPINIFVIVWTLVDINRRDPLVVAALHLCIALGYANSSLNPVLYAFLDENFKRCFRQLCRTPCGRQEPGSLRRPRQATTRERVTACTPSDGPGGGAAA
T4 sequence (P32300 whole entry D128N): as the sequence (P32300 whole entry H278N) above, with D128N, N278H counted along it
T2 sequence (P32300 whole entry): as the sequence (P32300 whole entry H278N) above, with N278H counted along it
T5 sequence (P32300 whole entry D95N): as the sequence (P32300 whole entry H278N) above, with D95N, N278H counted along it
T3 sequence (P35377 whole entry): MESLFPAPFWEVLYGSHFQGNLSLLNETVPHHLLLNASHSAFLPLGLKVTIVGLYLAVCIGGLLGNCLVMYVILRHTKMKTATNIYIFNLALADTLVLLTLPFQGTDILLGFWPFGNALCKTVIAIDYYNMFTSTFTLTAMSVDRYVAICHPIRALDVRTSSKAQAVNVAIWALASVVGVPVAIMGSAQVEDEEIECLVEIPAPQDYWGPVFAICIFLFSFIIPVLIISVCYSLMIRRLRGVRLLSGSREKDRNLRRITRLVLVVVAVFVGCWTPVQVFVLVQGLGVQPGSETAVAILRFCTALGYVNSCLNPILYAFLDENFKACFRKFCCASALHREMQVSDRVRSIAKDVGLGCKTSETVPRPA
T6 sequence (P33534 whole entry): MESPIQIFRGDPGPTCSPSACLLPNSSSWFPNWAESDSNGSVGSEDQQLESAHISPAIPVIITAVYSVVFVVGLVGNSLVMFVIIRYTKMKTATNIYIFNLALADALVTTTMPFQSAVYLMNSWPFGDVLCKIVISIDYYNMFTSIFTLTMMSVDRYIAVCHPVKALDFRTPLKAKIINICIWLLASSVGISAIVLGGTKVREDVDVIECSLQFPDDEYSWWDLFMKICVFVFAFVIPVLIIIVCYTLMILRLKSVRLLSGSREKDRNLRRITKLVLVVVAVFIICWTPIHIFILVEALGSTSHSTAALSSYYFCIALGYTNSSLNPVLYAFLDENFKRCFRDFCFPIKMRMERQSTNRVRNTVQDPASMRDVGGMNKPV
T8 sequence (P32300 whole entry): as the sequence (P32300 whole entry H278N) above, with N278H counted along it
T9 sequence (P33535 whole entry): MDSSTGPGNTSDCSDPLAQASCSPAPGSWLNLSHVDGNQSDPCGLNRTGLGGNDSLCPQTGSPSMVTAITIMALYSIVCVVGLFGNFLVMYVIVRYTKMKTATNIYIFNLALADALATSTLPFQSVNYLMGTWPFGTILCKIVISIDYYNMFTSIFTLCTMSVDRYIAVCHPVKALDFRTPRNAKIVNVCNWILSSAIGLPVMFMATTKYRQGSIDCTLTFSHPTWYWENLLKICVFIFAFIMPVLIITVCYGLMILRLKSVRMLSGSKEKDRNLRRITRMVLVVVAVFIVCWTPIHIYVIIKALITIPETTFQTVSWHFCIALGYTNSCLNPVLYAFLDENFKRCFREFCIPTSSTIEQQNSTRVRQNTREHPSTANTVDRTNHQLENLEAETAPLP
T7 sequence (P33535 whole entry): as above
Chain of kappa 1-74/delta65-372 chimera (P33534+P32300 fused with the stated changes): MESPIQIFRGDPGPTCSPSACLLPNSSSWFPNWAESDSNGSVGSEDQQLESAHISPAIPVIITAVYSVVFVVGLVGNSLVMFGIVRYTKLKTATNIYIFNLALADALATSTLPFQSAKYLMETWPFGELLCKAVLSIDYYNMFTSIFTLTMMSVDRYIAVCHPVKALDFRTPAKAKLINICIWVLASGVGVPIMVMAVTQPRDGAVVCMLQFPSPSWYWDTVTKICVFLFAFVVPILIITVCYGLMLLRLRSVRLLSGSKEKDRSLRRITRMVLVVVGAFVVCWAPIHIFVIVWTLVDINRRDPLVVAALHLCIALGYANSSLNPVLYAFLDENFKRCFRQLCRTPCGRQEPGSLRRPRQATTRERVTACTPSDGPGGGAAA
Chain of κ1-78/δ70-372 chimeric receptor (P33534+P32300 fused with the stated changes): as above

For `CCC12CCN(CC3(O)CC3)C(Cc3ccc(O)cc31)C2(C)C` (racemic) [Bremazocine], the results for the EC50 in assay [1], in [2] and in assay [7] were 1.5 nM, 7.4 nM and 80 nM, respectively. In addition, the “Effect on forskolin-stimulated cAMP formation, MOP2” value in [3] was “no effect”. Moreover, the Ki stood at 2690 nM in assay [4]; 1.7 nM in assay [5]; 0.089 nM in assay [8]; 0.75 nM in assay [9]; 2.3 nM in assay [10]; 58 nM in assay [11]. Besides, in assay [6], the “Affinity of aspartate 95 mutant and wild-type delta receptors compared” value was “similar”.

For `Oc1ccc2c3c1O[C@H]1c4[nH]c5ccccc5c4C[C@@]4(O)[C@@H](C2)N(CC2CC2)CC[C@]314` [[^3H]naltrindole], the Kd came to 1.3 ± 0.6 nM in [4], 0.2 ± 0.1 nM in [5], 0.18 nM in [10] and 0.6 ± 0.2 nM in [11]. The “Binding of radioligand to the kappa 1-74/delta65-372 chimera” value in assay [12] is “potently bound”. For the same compound, the “Specific binding of radioligand to MOP2” value in assay [13] was “did not bind specifically”.

As for `Oc1ccc2c3c1O[C@H]1c4[nH]c5ccccc5c4C[C@@]4(O)[C@@H](C2)N(CC2CC2)CC[C@]314` [naltrindole], the Ki came to 5.6 nM in assay [4], 0.5 nM in [5], 66 nM in assay [8] and 1.4 nM in [11]. Also, the “Affinity of aspartate 95 mutant and wild-type delta receptors compared” value in assay [6] is recorded as “similar”. The same compound had an IC50 in assay [14] of 0.25 nM.

With pertussis toxin [PTX], the “Decrease of specific [3H]DAMGO labelling of the rat μ receptor” value in assay [15] is reported as 42+/−5%.

For the origin of these results see patent US7235366B1 (priority 1993, dated 2007).
